Reference: PubChem BioAssay (NCI)
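Five compound concentrations were applied to cells in 96-well plates for 48 hours; endpoints were derived by simple linear interpolation of the resulting dose-response curve. Here, GI50 denotes the concentration required for 50% inhibition of growth. The concentration for full growth arrest is given as TGI.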

How the values were obtained:
Assay in all cases: NCI-60 cell line screen, 48 h
[1] = test system: KM12 colon
[2] = test system: HS 578T breast
[3] = test system: SF-539 CNS
[4] = test system: OVCAR-5 ovarian
[5] = test system: COLO 205 colon
[6] = test system: A498 renal
[7] = test system: NCI/ADR-RES ovarian
[8] = test system: HL-60(TB) leukemia
[9] = test system: TK-10 renal
[10] = test system: MDA-MB-435
[11] = test system: EKVX NSCLC
[12] = test system: SR leukemia
[13] = test system: UACC-257 melanoma
[14] = test system: ACHN renal
[15] = test system: A549 NSCLC
[16] = test system: K-562 leukemia
[17] = test system: M14 melanoma
[18] = test system: SK-MEL-28 melanoma
[19] = test system: MDA-MB-468 breast
[20] = test system: SK-MEL-5 melanoma
[21] = test system: T-47D breast
[22] = test system: OVCAR-8 ovarian
[23] = test system: RXF 393 renal
[24] = test system: BT-549 breast
[25] = test system: SK-MEL-2 melanoma
[26] = test system: IGROV1 ovarian
[27] = test system: SF-295 CNS
[28] = test system: SW-620 colon
[29] = test system: MDA-MB-231 breast
[30] = test system: UO-31 renal
[31] = test system: HT29 colon
[32] = test system: SN12C renal
[33] = test system: NCI-H226 lung
[34] = test system: 786-0 renal
[35] = test system: OVCAR-4 ovarian
[36] = test system: SNB-75 CNS
[37] = test system: HCC-2998 colon
[38] = test system: MALME-3M melanoma
[39] = test system: SK-OV-3 ovarian
[40] = test system: SNB-19 CNS
[41] = test system: MOLT-4 leukemia
[42] = test system: HCT-116 colon
[43] = test system: HOP-62 NSCLC
[44] = test system: UACC-62 melanoma
[45] = test system: HOP-92 NSCLC
[46] = test system: U251 CNS
[47] = test system: CAKI-1 renal
[48] = test system: DU-145 prostate
[49] = test system: LOX IMVI melanoma
[50] = test system: RPMI-8226 leukemia
[51] = test system: CCRF-CEM leukemia
[52] = test system: NCI-H23 lung
[53] = test system: SF-268 CNS
[54] = test system: MCF7 breast
[55] = test system: NCI-H522 lung
[56] = test system: OVCAR-3 ovarian
[57] = test system: PC-3 prostate
[58] = test system: HCT-15 colon
[59] = test system: NCI-H460 lung

Compound: COc1c2c(cc3c1C(CCc1ccccc1)N(C)CC3)OCO2 (stereo not drawn)
- GI50 [1]: 21.4 µM
- TGI [1]: 70 µM
- GI50 [2]: 14.2 µM
- TGI [2]: 67 µM
- GI50 [3]: 10.7 µM
- TGI [3]: 35.5 µM
- GI50 [4]: 9.57 µM
- TGI [4]: > 100 µM
- GI50 [5]: 10.4 µM
- TGI [5]: 36.5 µM
- GI50 [6]: 12.1 µM
- TGI [6]: 48.3 µM
- GI50 [7]: 15.6 µM
- TGI [7]: 81.1 µM
- GI50 [8]: 4.8 µM
- TGI [8]: 26.4 µM
- GI50 [9]: 47.2 µM
- TGI [9]: > 100 µM
- GI50 [10]: 6.25 µM
- TGI [10]: 36.5 µM
- GI50 [11]: 30.5 µM
- TGI [11]: > 100 µM
- GI50 [12]: 10.6 µM
- TGI [12]: 53.3 µM
- GI50 [13]: 29.3 µM
- TGI [13]: > 100 µM
- GI50 [14]: 13.5 µM
- TGI [14]: > 100 µM
- GI50 [15]: 31.5 µM
- TGI [15]: > 100 µM
- GI50 [16]: 17.8 µM
- TGI [16]: > 100 µM
- GI50 [17]: 7.57 µM
- TGI [17]: 36.5 µM
- GI50 [18]: 15.8 µM
- TGI [18]: 59.3 µM
- GI50 [19]: 11.7 µM
- TGI [19]: 27.4 µM
- GI50 [20]: 13.8 µM
- TGI [20]: 26.8 µM
- GI50 [21]: 11.3 µM
- TGI [21]: 49.2 µM
- GI50 [22]: 31.3 µM
- TGI [22]: > 100 µM
- GI50 [23]: 11.8 µM
- TGI [23]: 55 µM
- GI50 [24]: 14.3 µM
- TGI [24]: 35.5 µM
- GI50 [25]: 24.6 µM
- TGI [25]: 98.3 µM
- GI50 [26]: 10 µM
- TGI [26]: 62.6 µM
- GI50 [27]: 4.34 µM
- TGI [27]: 28.9 µM
- GI50 [28]: 10.3 µM
- TGI [28]: 59.6 µM
- GI50 [29]: 10 µM
- TGI [29]: 40.7 µM
- GI50 [30]: 8.35 µM
- TGI [30]: > 100 µM
- GI50 [31]: 5.9 µM
- TGI [31]: 65.3 µM
- GI50 [32]: 10.2 µM
- TGI [32]: > 100 µM
- GI50 [33]: 13.8 µM
- TGI [33]: > 100 µM
- GI50 [34]: 18.7 µM
- TGI [34]: > 100 µM
- GI50 [35]: 26.4 µM
- TGI [35]: > 100 µM
- GI50 [36]: 11.6 µM
- TGI [36]: 54 µM
- GI50 [37]: 18.1 µM
- TGI [37]: 61.1 µM
- GI50 [38]: 13 µM
- TGI [38]: 27.3 µM
- GI50 [39]: 27.4 µM
- TGI [39]: > 100 µM
- GI50 [40]: 21.7 µM
- TGI [40]: > 100 µM
- GI50 [41]: 15.8 µM
- TGI [41]: 65.1 µM
- GI50 [42]: 4.32 µM
- TGI [42]: > 100 µM
- GI50 [43]: 8.32 µM
- TGI [43]: > 100 µM
- GI50 [44]: 12 µM
- TGI [44]: 43.9 µM
- GI50 [45]: 5.53 µM
- TGI [45]: 56.1 µM
- GI50 [46]: 24.5 µM
- TGI [46]: > 100 µM
- GI50 [47]: 10.5 µM
- TGI [47]: > 100 µM
- GI50 [48]: 36 µM
- TGI [48]: > 100 µM
- GI50 [49]: 5.31 µM
- TGI [49]: 19.4 µM
- GI50 [50]: 6.07 µM
- TGI [50]: 38.2 µM
- GI50 [51]: 19.2 µM
- TGI [51]: > 100 µM
- GI50 [52]: 16.2 µM
- TGI [52]: > 100 µM
- GI50 [53]: 17.3 µM
- TGI [53]: > 100 µM
- GI50 [54]: 14.6 µM
- TGI [54]: 43.1 µM
- GI50 [55]: 18.4 µM
- TGI [55]: 65.4 µM
- GI50 [56]: 13.8 µM
- TGI [56]: 77.3 µM
- GI50 [57]: 11.3 µM
- TGI [57]: > 100 µM
- GI50 [58]: 22.5 µM
- TGI [58]: > 100 µM
- GI50 [59]: 7.61 µM
- TGI [59]: 54.3 µM
